Reference: US8247211B2, “Glycopeptide antibiotics” (American Cyanamid Company, priority 2001, dated 2012)
In brackets after ≈: the same amount, converted by molar mass.

How the values were obtained:
Assay in all cases: In vitro antibacterial evaluation: minimum inhibitory concentration (MIC), broth dilution method
Format in all cases: cell-based
[1] = test system: Staphylococcus sp.; conditions: for MIC Coagulase Negative Staphylococcus (GC 4537): strain GC 4537; for MIC Coagulase Negative Staphylococcus (GC 4538): strain GC 4538
Description: (§1) The minimum inhibitory concentration (MIC), the lowest concentration of the antibiotic which inhibits growth of the test organism, is determined by the broth dilution method using Muller-Hinton II […] (Baltimore Biological Laboratories) following the recommendations of the National Committee for Clinical Laboratory Standards [Methods for dilution antimicrobial susceptibility tests for bacteria that grow aerobically, approved standard M7-A2, National Committee for Clinical Laboratory Standards, Villanova, Pa].
(§2) An inoculum level of 5×10^5 CFU/mL, and a range of antibiotic concentrations (64-0.06 μg/mL) is used. […] The test organisms include a spectrum of Gram-positive bacteria comprised of Staphylococcus sp., Streptococcus sp. and Enterococcus sp. These organisms include recent clinical isolates that are resistant to methicillin, penicillin and/or vancomycin.

[2] = test system: Escherichia coli
Description: as §1, §2

[3] = test system: Enterococcus sp.; conditions: for MIC Enterococcus faecalis (ATCC 29212): strain ATCC 29212
Description: as §1, §2

[4] = broth dilution, 18 hours at 35° C.
[5] = strain GC 4547, broth dilution, 18 hours at 35° C.
[6] = strain SMITH GC 4536, broth dilution, 18 hours at 35° C.
[7] = 5×10^5 CFU/mL, 18 hours at 35° C.
[8] = broth dilution, 5×10^5 CFU/mL, 18 hours at 35° C.

## CC(c1ccccc1)C1NC(=O)CNC(=O)C(CO)NC(=O)C(C(O)C2CNC(=N)N2C2OC(CO)C(O)C(O)C2O)NC(=O)C(C(O)C2CNC(=N)N2)NC(=O)C(Cc2ccc(OC3OC(COC(=O)Cc4ccccc4)C(OC4OC(CO)C(O)C(O)C4O)C(O)C3O)cc2)NC1=O (centres unmarked) [Example 98b]
[1]; [4]
  MIC Staphylococcus aureus (ATCC 29213): 16 mg/L (≈ 11.3 µM)
  MIC Staphylococcus aureus (GC 1131): 16 mg/L (≈ 11.3 µM)
  MIC Staphylococcus aureus (GC 4535): 16 mg/L (≈ 11.3 µM)
  MIC Staphylococcus aureus SMITH (GC 4536): 8 mg/L (≈ 5.66 µM)
  MIC Coagulase Negative Staphylococcus (GC 4537): 16 mg/L (≈ 11.3 µM)
  MIC Coagulase Negative Staphylococcus (GC 4538): 8 mg/L (≈ 5.66 µM)
[1]
  MIC Coagulase Negative Staphylococcus (GC 4537): 16 mg/L (≈ 11.3 µM)
  MIC Coagulase Negative Staphylococcus (GC 4538): 8 mg/L (≈ 5.66 µM)
[1]; strain GC 4547
  MIC Coagulase Negative Staphylococcus (GC 4547): 8 mg/L (≈ 5.66 µM)
[1]; [5]
  MIC Coagulase Negative Staphylococcus (GC 4547): 8 mg/L (≈ 5.66 µM)
[1]; [6]
  MIC Staphylococcus aureus-SMITH (GC 4536): 8 mg/L (≈ 5.66 µM)
[2]; strain GC 4560
  MIC Escherichia coli (GC 4560): 2 mg/L (≈ 1.42 µM)
[3]
  MIC Enterococcus faecalis (ATCC 29212): 64 mg/L (≈ 45.3 µM)
[3]; strain GC 2242
  MIC Enterococcus faecalis (GC 2242): 64 mg/L (≈ 45.3 µM)

## CC(c1ccccc1)C1NC(=O)CNC(=O)C(CO)NC(=O)C(C(O)C2CNC(=N)N2C2OC(CO)C(O)C(O)C2O)NC(=O)C(C(O)C2CNC(=N)N2)NC(=O)C(Cc2ccc(OC3OC(CO)C(OC4OC(COC(=O)Cc5ccccc5)C(O)C(O)C4O)C(O)C3O)cc2)NC1=O (stereo not drawn) [Example 98c, Cyclo[glycyl-β-methylphenylalanyl-O-[4-O-[6-O-(phenylacetyl)hexopyranosyl]hexopyranosyl]-tyrosyl-3-(2-iminoimidazolidin-4-yl)seryl-3-(3-hexopyranosyl-2-iminoimidazolidin-4-yl)-serylseryl]]
[1]; [4]
  MIC Staphylococcus aureus (ATCC 29213): 2 mg/L (≈ 1.42 µM)
  MIC Staphylococcus aureus (GC 1131): 2 mg/L (≈ 1.42 µM)
  MIC Staphylococcus aureus (GC 4535): 4 mg/L (≈ 2.83 µM)
  MIC Staphylococcus aureus SMITH (GC 4536): 2 mg/L (≈ 1.42 µM)
  MIC Coagulase Negative Staphylococcus (GC 4537): 2 mg/L (≈ 1.42 µM)
  MIC Coagulase Negative Staphylococcus (GC 4538): 1 mg/L (≈ 0.708 µM)
[1]
  MIC Coagulase Negative Staphylococcus (GC 4537): 2 mg/L (≈ 1.42 µM)
  MIC Coagulase Negative Staphylococcus (GC 4538): 1 mg/L (≈ 0.708 µM)
[1]; strain GC 4547
  MIC Coagulase Negative Staphylococcus (GC 4547): 1 mg/L (≈ 0.708 µM)
[1]; [5]
  MIC Coagulase Negative Staphylococcus (GC 4547): 1 mg/L (≈ 0.708 µM)
[1]; [6]
  MIC Staphylococcus aureus-SMITH (GC 4536): 2 mg/L (≈ 1.42 µM)
[2]; strain GC 4559
  MIC Escherichia coli (GC 4559): 64 mg/L (≈ 45.3 µM)
[2]; strain GC 4560
  MIC Escherichia coli (GC 4560): 0.5 mg/L (≈ 0.354 µM)
[3]
  MIC Enterococcus faecalis (ATCC 29212): 16 mg/L (≈ 11.3 µM)
[3]; strain GC 2242
  MIC Enterococcus faecalis (GC 2242): 8 mg/L (≈ 5.66 µM)
[3]; strain GC 4552
  MIC Enterococcus faecalis (GC 4552): 16 mg/L (≈ 11.3 µM)

## CC(c1ccccc1)C1NC(=O)CNC(=O)C(CO)NC(=O)C(C(O)C2CNC(=N)N2C2OC(CO)C(O)C(O)C2O)NC(=O)C(C(O)C2CNC(=N)N2)NC(=O)C(Cc2ccc(OC3OC(COC(=O)CCC4CCCC4)C(OC4OC(CO)C(O)C(O)C4O)C(O)C3O)cc2)NC1=O (stereo not drawn) [Example 100b, Cyclo[glycyl-β-methylphenylalanyl-O-[6-O-(3-cyclopentylpropanoyl)-4-O-hexopyranosyl-hexopyranosyl]tyrosyl-3-(2-iminoimidazolidin-4-yl)seryl-3-(3-hexopyranosyl-2-iminoimidazolidin-4-yl)serylseryl]]
[1]; strain ATCC 29213
  MIC Staphylococcus aureus (ATCC 29213): 2 mg/L (≈ 1.41 µM)
[1]; strain GC 1131
  MIC Staphylococcus aureus (GC 1131): 2 mg/L (≈ 1.41 µM)
[1]; strain GC 4535
  MIC Staphylococcus aureus (GC 4535): 2 mg/L (≈ 1.41 µM)
[1]; strain GC 4536
  MIC Staphylococcus aureus-SMITH (GC 4536): 2 mg/L (≈ 1.41 µM)
[1]
  MIC Coagulase Negative Staphylococcus (GC 4537): 2 mg/L (≈ 1.41 µM)
  MIC Coagulase Negative Staphylococcus (GC 4538): 1 mg/L (≈ 0.704 µM)
[1]; [4]
  MIC Coagulase Negative Staphylococcus (GC 4537): 2 mg/L (≈ 1.41 µM)
  MIC Coagulase Negative Staphylococcus (GC 4538): 1 mg/L (≈ 0.704 µM)
[1]; strain GC 4547
  MIC Coagulase Negative Staphylococcus (GC 4547): 1 mg/L (≈ 0.704 µM)
[1]; [5]
  MIC Coagulase Negative Staphylococcus (GC 4547): 1 mg/L (≈ 0.704 µM)
[1]; [6]
  MIC Staphylococcus aureus-SMITH (GC 4536): 2 mg/L (≈ 1.41 µM)
[2]; [7]
  MIC Escherichia coli (GC 4560): 0.5 mg/L (≈ 0.352 µM)
[3]; [8]
  MIC Enterococccus faecalis (ATCC 29212): 8 mg/L (≈ 5.64 µM)
  MIC Enterococccus faecalis (GC 4552): 8 mg/L (≈ 5.64 µM)
  MIC Enterococcus faecalis (GC 2242): 8 mg/L (≈ 5.64 µM)

## CC(c1ccccc1)C1NC(=O)CNC(=O)C(CO)NC(=O)C(C(O)C2CNC(=N)N2C2OC(CO)C(O)C(O)C2O)NC(=O)C(C(O)C2CNC(=N)N2)NC(=O)C(Cc2ccc(OC3OC(CO)C(OC4OC(COC(=O)CCC5CCCC5)C(O)C(O)C4O)C(O)C3O)cc2)NC1=O (stereo not drawn) [Example 100c, Cyclo[glycyl-β-methylphenylalanyl-O-[4-O-[6-O-(3-cyclopentylpropanoyl)hexopyranosyl]-hexopyranosyl]tyrosyl-3-(2-iminoimidazolidin-4-yl)seryl-3-(3-hexopyranosyl-2-iminoimidazolidin-4-yl)serylseryl]]
[1]; strain ATCC 29213
  MIC Staphylococcus aureus (ATCC 29213): 1 mg/L (≈ 0.704 µM)
[1]; strain GC 1131
  MIC Staphylococcus aureus (GC 1131): 1 mg/L (≈ 0.704 µM)
[1]; strain GC 4535
  MIC Staphylococcus aureus (GC 4535): 1 mg/L (≈ 0.704 µM)
[1]; strain GC 4536
  MIC Staphylococcus aureus-SMITH (GC 4536): 1 mg/L (≈ 0.704 µM)
[1]
  MIC Coagulase Negative Staphylococcus (GC 4537): 1 mg/L (≈ 0.704 µM)
  MIC Coagulase Negative Staphylococcus (GC 4538): 1 mg/L (≈ 0.704 µM)
[1]; [4]
  MIC Coagulase Negative Staphylococcus (GC 4537): 1 mg/L (≈ 0.704 µM)
  MIC Coagulase Negative Staphylococcus (GC 4538): 1 mg/L (≈ 0.704 µM)
[1]; strain GC 4547
  MIC Coagulase Negative Staphylococcus (GC 4547): 1 mg/L (≈ 0.704 µM)
[1]; [5]
  MIC Coagulase Negative Staphylococcus (GC 4547): 1 mg/L (≈ 0.704 µM)
[1]; [6]
  MIC Staphylococcus aureus-SMITH (GC 4536): 1 mg/L (≈ 0.704 µM)
[2]; [7]
  MIC Escherichia coli (GC 4559): 32 mg/L (≈ 22.5 µM)
  MIC Escherichia coli (GC 4560): 0.5 mg/L (≈ 0.352 µM)
[3]; [8]
  MIC Enterococccus faecalis (ATCC 29212): 4 mg/L (≈ 2.82 µM)
  MIC Enterococccus faecalis (GC 4552): 4 mg/L (≈ 2.82 µM)
  MIC Enterococcus faecalis (GC 2242): 2 mg/L (≈ 1.41 µM)

## CC(C)C(=O)OCC1OC(OC2C(CO)OC(Oc3ccc(CC4NC(=O)C(Cc5ccccc5)NC(=O)CNC(=O)C(CO)NC(=O)C(C(O)C5CNC(=N)N5C5OC(CO)C(O)C(O)C5O)NC(=O)C(C(O)C5CNC(=N)N5)NC4=O)cc3)C(O)C2O)C(O)C(O)C1O (centres unmarked) [Example 283a]
[1]; Coagulase Negative Staphylococcus (GC 4547), 18 hours at 35° C.
  MIC Coagulase Negative Staphylococcus (GC 4547): 64 mg/L (≈ 47.4 µM)
[1]; Coagulase Negative Staphylococcus (GC 4547), broth dilution, 18 hours at 35° C.
  MIC Coagulase Negative Staphylococcus (GC 4547): 64 mg/L (≈ 47.4 µM)
[1]; 18 hours at 35° C.
  MIC Coagulase Negative Staphylococcus (GC 4548): 64 mg/L (≈ 47.4 µM)
  MIC Coagulase Negative Staphylococcus (GC 4549): 32 mg/L (≈ 23.7 µM)
  MIC Coagulase Negative Staphylococcus (GC 4551): 64 mg/L (≈ 47.4 µM)
  MIC Staphylococcus aureus (GC 3051): 64 mg/L (≈ 47.4 µM)
  MIC Staphylococcus aureus (GC 4541): 64 mg/L (≈ 47.4 µM)
  MIC Staphylococcus aureus (GC 4542): 64 mg/L (≈ 47.4 µM)
  MIC Staphylococcus aureus (GC 4544): 64 mg/L (≈ 47.4 µM)
  MIC Staphylococcus aureus (GC 4545): 64 mg/L (≈ 47.4 µM)
  MIC Staphylococcus aureus-SMITH (GC 4543): 64 mg/L (≈ 47.4 µM)
  MIC Staphylococcus haemolyticus (GC 4546): 64 mg/L (≈ 47.4 µM)
[1]; [4]
  MIC Coagulase Negative Staphylococcus (GC 4548): 64 mg/L (≈ 47.4 µM)
  MIC Coagulase Negative Staphylococcus (GC 4549): 32 mg/L (≈ 23.7 µM)
  MIC Coagulase Negative Staphylococcus (GC 4551): 64 mg/L (≈ 47.4 µM)
  MIC Staphylococcus aureus (GC 3051): 64 mg/L (≈ 47.4 µM)
  MIC Staphylococcus aureus (GC 4541): 64 mg/L (≈ 47.4 µM)
  MIC Staphylococcus aureus (GC 4542): 64 mg/L (≈ 47.4 µM)
  MIC Staphylococcus aureus (GC 4544): 64 mg/L (≈ 47.4 µM)
  MIC Staphylococcus aureus (GC 4545): 64 mg/L (≈ 47.4 µM)
  MIC Staphylococcus aureus-SMITH (GC 4543): 64 mg/L (≈ 47.4 µM)
  MIC Staphylococcus haemolyticus (GC 4546): 64 mg/L (≈ 47.4 µM)
[1]; Staphylococcus aureus (ATCC 29213), 18 hours at 35° C.
  MIC Staphylococcus aureus (ATCC 29213): 64 mg/L (≈ 47.4 µM)
[1]; Staphylococcus aureus (ATCC 29213), broth dilution, 18 hours at 35° C.
  MIC Staphylococcus aureus (ATCC 29213): 64 mg/L (≈ 47.4 µM)
[1]; Staphylococcus aureus (GC 1131), 18 hours at 35° C.
  MIC Staphylococcus aureus (GC 1131): 64 mg/L (≈ 47.4 µM)
[1]; Staphylococcus aureus (GC 1131), broth dilution, 18 hours at 35° C.
  MIC Staphylococcus aureus (GC 1131): 64 mg/L (≈ 47.4 µM)
[2]; Escherichia coli (GC 4560)
  MIC Escherichia coli (GC 4560): 32 mg/L (≈ 23.7 µM)
[3]; Enterococcus faecium (GC 4557)
  MIC Enterococcus faecium (GC 4557): 64 mg/L (≈ 47.4 µM)
